# Results: PMC12064818, “A general assay platform to study protein pharmacology using ligand-dependent structural dynamics” (Nature Communications, 2025)
# Tests used:
# NLuc = biological target: T1, NLuc (Oplophorus gracilirostris, UniProt Q9GV45, A31E/A60N/A81I/F95D/I117V/K70R/L54V/L99Q/M102K/N193R/P142E/Q151K/Q38R/Q45L/V71I/Y165I); assay type: biochemical; settings: - ATP
# T1 construct: His tag (inferred from IMAC purification); made in house; host or cells: E. coli
# Procedure, shortened: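 Luminescence was read 10 min after Nano-Glo reagent addition. Enzyme was 1 nM NLuc in PBS/0.05% IGEPAL buffer, with or without ATP.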
# P. pyralis FLuc = P. pyralis FLuc (Photinus pyralis, UniProt P08659); assay: FLuc enzymatic luminescence assay, P. pyralis FLuc; assay type: biochemical; settings: FLuc enzymatic assay, Clade S follow-up; for IC50: read-out: IC50 or SDR50 (mM) FLuc E
# Procedure, shortened: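 Runs with and without 10 µM ATP: compounds were pre-incubated with FLuc (1–10 nM, PBS pH 7.4) at ambient temperature, light-protected, for 30–60 min. Luminescence was imaged 5 min after adding 10 µM D-luciferin (final). Inhibition was scaled between DMSO neutral and no-enzyme controls.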
# [1] = biological target: FLuc-C-HiBiT (firefly luciferase) (Photinus pyralis, UniProt P08659, form not given/L550V); assay: SDR assay, FLuc-C-HiBiT; settings: SDR max. response, clade S
# [2] = biological target: FLuc-C-NLuc (firefly luciferase) (Photinus pyralis, UniProt P08659, form not given/L550V); assay: SDR assay, FLuc-C-NLuc; settings: - ATP
# FLuc-C-NLuc (firefly luciferase), sequence (P08659 2-550 L550V, form open): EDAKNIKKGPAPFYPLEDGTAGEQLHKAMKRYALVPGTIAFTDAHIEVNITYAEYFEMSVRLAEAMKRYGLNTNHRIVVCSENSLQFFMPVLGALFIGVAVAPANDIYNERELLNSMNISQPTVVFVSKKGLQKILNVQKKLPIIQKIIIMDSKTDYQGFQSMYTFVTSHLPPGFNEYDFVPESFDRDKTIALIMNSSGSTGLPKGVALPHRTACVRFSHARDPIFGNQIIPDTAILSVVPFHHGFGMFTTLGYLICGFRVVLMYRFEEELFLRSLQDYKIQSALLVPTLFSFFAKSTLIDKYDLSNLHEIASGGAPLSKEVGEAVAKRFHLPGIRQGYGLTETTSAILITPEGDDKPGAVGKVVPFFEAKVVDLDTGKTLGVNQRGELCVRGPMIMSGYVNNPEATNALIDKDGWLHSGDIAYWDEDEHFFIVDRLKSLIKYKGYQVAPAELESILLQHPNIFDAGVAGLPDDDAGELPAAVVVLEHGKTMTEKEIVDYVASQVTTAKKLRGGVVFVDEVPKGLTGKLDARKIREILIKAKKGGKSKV
# FLuc-C-HiBiT (firefly luciferase), sequence (P08659 2-550 L550V, form open): as above
# P. pyralis FLuc, sequence (P08659 whole entry): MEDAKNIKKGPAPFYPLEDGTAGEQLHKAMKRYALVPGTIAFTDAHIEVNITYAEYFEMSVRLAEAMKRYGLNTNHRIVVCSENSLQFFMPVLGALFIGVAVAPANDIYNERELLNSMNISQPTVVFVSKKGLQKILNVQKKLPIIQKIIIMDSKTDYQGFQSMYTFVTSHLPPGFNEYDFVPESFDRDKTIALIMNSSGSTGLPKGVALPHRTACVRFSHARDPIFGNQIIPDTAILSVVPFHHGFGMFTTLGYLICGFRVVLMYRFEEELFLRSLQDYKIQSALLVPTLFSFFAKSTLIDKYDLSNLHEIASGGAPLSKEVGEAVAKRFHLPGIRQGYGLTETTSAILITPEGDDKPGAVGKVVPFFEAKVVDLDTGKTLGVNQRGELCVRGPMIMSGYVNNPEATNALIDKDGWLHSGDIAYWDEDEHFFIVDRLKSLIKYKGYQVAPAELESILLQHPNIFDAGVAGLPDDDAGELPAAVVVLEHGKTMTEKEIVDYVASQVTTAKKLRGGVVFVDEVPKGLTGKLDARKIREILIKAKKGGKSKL
# T1 sequence (Q9GV45 other isoform, or with tags, fused parts or gaps with the stated changes): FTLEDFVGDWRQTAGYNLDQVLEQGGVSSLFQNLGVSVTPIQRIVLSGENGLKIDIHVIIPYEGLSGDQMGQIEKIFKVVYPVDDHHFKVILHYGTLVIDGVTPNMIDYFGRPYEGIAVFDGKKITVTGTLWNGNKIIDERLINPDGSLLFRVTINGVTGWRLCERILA
structure (smiles),measurement,setting,value
COc1ccc(C2Cn3cnc(C(=O)N4CCC(C(=O)NCC5CCCCC5)CC4)c3CO2)cc1 (stereo not shown) [NCGC00449872-01],Efficacy (%) NLuc (- ATP),NLuc,0.00%
same,Efficacy (%) FLuc E,P. pyralis FLuc,-14.52%
same,"% Activity (max response, + ATP)",[1],0.00%
same,"% Activity (max response, - ATP)",[1],0.00%
same,Efficacy (%) FLuc-C-NLuc SDR (-ATP),[2],0.00%
COc1ccc(C2Cn3cnc(C(=O)N4CCC(C(=O)NCC5CC5)CC4)c3CO2)cc1 (stereo not shown) [NCGC00449873-01],Efficacy (%) NLuc (- ATP),NLuc,0.00%
same,Efficacy (%) FLuc E,P. pyralis FLuc,0.00%
same,"% Activity (max response, + ATP)",[1],0.00%
same,"% Activity (max response, - ATP)",[1],0.00%
same,Efficacy (%) FLuc-C-NLuc SDR (-ATP),[2],0.00%
COCCCNC(=O)C1CCN(C(=O)c2ncn3c2COC(c2ccc(OC)cc2)C3)CC1 (stereo not shown) [NCGC00449877-01],Efficacy (%) NLuc (- ATP),NLuc,0.00%
same,Efficacy (%) FLuc E,P. pyralis FLuc,0.00%
same,"% Activity (max response, + ATP)",[1],0.00%
same,"% Activity (max response, - ATP)",[1],0.00%
same,Efficacy (%) FLuc-C-NLuc SDR (-ATP),[2],0.00%
COc1ccc(C2Cn3cnc(C(=O)N4CCC(C(=O)NCc5cccc(C)c5)CC4)c3CO2)cc1 (stereo not shown) [NCGC00449879-01],Efficacy (%) NLuc (- ATP),NLuc,0.00%
same,Efficacy (%) FLuc E,P. pyralis FLuc,0.00%
same,"% Activity (max response, + ATP)",[1],0.00%
same,"% Activity (max response, - ATP)",[1],0.00%
same,Efficacy (%) FLuc-C-NLuc SDR (-ATP),[2],0.00%
Cc1ccc(C2Cn3cnc(C(=O)N4CCC(C(=O)NC5CCCC5)CC4)c3CO2)cc1 (stereo not shown) [NCGC00449881-01],Efficacy (%) NLuc (- ATP),NLuc,0.00%
same,Efficacy (%) FLuc E,P. pyralis FLuc,-51.50%
same,pIC50 or pSDR50 FLuc E,P. pyralis FLuc,4.96
same,IC50,P. pyralis FLuc,0.0111 mM
same,"% Activity (max response, + ATP)",[1],73.27%
same,"% Activity (max response, - ATP)",[1],0.00%
same,Efficacy (%) FLuc-C-NLuc SDR (-ATP),[2],0.00%
Cc1ccc(C2Cn3cnc(C(=O)N4CCC(C(=O)NC5CCCCC5)CC4)c3CO2)cc1 (stereo not shown) [NCGC00449882-01],Efficacy (%) NLuc (- ATP),NLuc,0.00%
same,Efficacy (%) FLuc E,P. pyralis FLuc,-33.56%
same,pIC50 or pSDR50 FLuc E,P. pyralis FLuc,4.91
same,IC50,P. pyralis FLuc,0.0124 mM
same,"% Activity (max response, + ATP)",[1],52.31%
same,"% Activity (max response, - ATP)",[1],0.00%
same,Efficacy (%) FLuc-C-NLuc SDR (-ATP),[2],0.00%
Cc1ccc(C2Cn3cnc(C(=O)N4CCC(C(=O)NCCC5=CCCCC5)CC4)c3CO2)cc1 (stereo not shown) [NCGC00449883-01],Efficacy (%) NLuc (- ATP),NLuc,0.00%
same,Efficacy (%) FLuc E,P. pyralis FLuc,-54.72%
same,pIC50 or pSDR50 FLuc E,P. pyralis FLuc,5.01
same,IC50,P. pyralis FLuc,0.00988 mM
same,"% Activity (max response, + ATP)",[1],75.13%
same,"% Activity (max response, - ATP)",[1],0.00%
same,Efficacy (%) FLuc-C-NLuc SDR (-ATP),[2],0.00%
Cc1ccc(C2Cn3cnc(C(=O)N4CCC(C(=O)NCc5ccccc5)CC4)c3CO2)cc1 (stereo not shown) [NCGC00449884-01],Efficacy (%) NLuc (- ATP),NLuc,-9.37%
same,Efficacy (%) FLuc E,P. pyralis FLuc,-51.95%
same,pIC50 or pSDR50 FLuc E,P. pyralis FLuc,4.96
same,IC50,P. pyralis FLuc,0.0111 mM
same,"% Activity (max response, + ATP)",[1],91.57%
same,"% Activity (max response, - ATP)",[1],0.00%
same,Efficacy (%) FLuc-C-NLuc SDR (-ATP),[2],0.00%
COc1cccc(CNC(=O)C2CCN(C(=O)c3ncn4c3COC(c3ccc(C)cc3)C4)CC2)c1 (stereo not shown) [NCGC00449886-01],Efficacy (%) NLuc (- ATP),NLuc,-7.20%
same,Efficacy (%) FLuc E,P. pyralis FLuc,-31.42%
same,pIC50 or pSDR50 FLuc E,P. pyralis FLuc,4.91
same,IC50,P. pyralis FLuc,0.0124 mM
same,"% Activity (max response, + ATP)",[1],57.89%
same,"% Activity (max response, - ATP)",[1],0.00%
same,Efficacy (%) FLuc-C-NLuc SDR (-ATP),[2],0.00%
COc1ccc(CNC(=O)C2CCN(C(=O)c3ncn4c3COC(c3ccc(C)cc3)C4)CC2)cc1 (stereo not shown) [NCGC00449887-01],Efficacy (%) NLuc (- ATP),NLuc,0.00%
same,Efficacy (%) FLuc E,P. pyralis FLuc,-38.46%
same,pIC50 or pSDR50 FLuc E,P. pyralis FLuc,4.96
same,IC50,P. pyralis FLuc,0.0111 mM
same,"% Activity (max response, + ATP)",[1],80.81%
same,"% Activity (max response, - ATP)",[1],0.00%
same,Efficacy (%) FLuc-C-NLuc SDR (-ATP),[2],0.00%
Cc1ccc(C2Cn3cnc(C(=O)N4CCC(C(=O)NCc5ccccc5F)CC4)c3CO2)cc1 (stereo not shown) [NCGC00449888-01],Efficacy (%) NLuc (- ATP),NLuc,0.00%
same,Efficacy (%) FLuc E,P. pyralis FLuc,-37.08%
same,pIC50 or pSDR50 FLuc E,P. pyralis FLuc,4.91
same,IC50,P. pyralis FLuc,0.0124 mM
same,"% Activity (max response, + ATP)",[1],72.23%
same,"% Activity (max response, - ATP)",[1],0.00%
same,Efficacy (%) FLuc-C-NLuc SDR (-ATP),[2],0.00%
Cc1ccc(C2Cn3cnc(C(=O)N4CCC(C(=O)NCc5ccc(F)cc5)CC4)c3CO2)cc1 (stereo not shown) [NCGC00449889-01],Efficacy (%) NLuc (- ATP),NLuc,0.00%
same,Efficacy (%) FLuc E,P. pyralis FLuc,-57.95%
same,pIC50 or pSDR50 FLuc E,P. pyralis FLuc,5.01
same,IC50,P. pyralis FLuc,0.00988 mM
same,"% Activity (max response, + ATP)",[1],136.15%
same,"% Activity (max response, - ATP)",[1],0.00%
same,Efficacy (%) FLuc-C-NLuc SDR (-ATP),[2],0.00%
